Here are results for 52 compounds from patent publication US20230310388A1, “Methods and Compositions for Treating Fungal Infections” (Neoculi Pty Ltd, priority 2020, published 2023).

Common to all, as to assay type: cell-based
In assay [1] the test system is Candida albicans ATCC14053. Briefly: Broth micro-dilution screen at 16 μg/mL and MIC (Example 9). The note with it: for Screen at 16 μg/mL: single concentration 16 μg/mL, Growth or No growth of C. albicans ATCC14053; for MIC: C. albicans ATCC14053, test range 0.25-64 μg/mL, duplicate. On the procedure:
The antifungal activity of 201 NCL analogs against Candida albicans ATCC14053 in vitro was investigated. A broth micro-dilution method was used, according to CLSI guidelines as described. NCL analogs were dissolved in DMSO and originally screened at a single concentration of 16 μg/mL.
Background: Broth dilution looks for growth in wells or tubes with falling amounts of substance.

A further assay concerns Cryptococcus neoformans. Briefly: CLSI broth microdilution MIC (Example 4). Here is the method:
(§1) Antifungal minimum inhibitory concentration (MIC) testing was undertaken as recommended by the CLSI. Briefly, antifungal susceptibility tests were performed for amphotericin B, robenidine (NCL812) and robenidine (NCL) analogs (NCL004, NCL020, NCL023, NCL024, NCL062, NCL094, NCL097, NCL110, NCL113, NCL114, NCL115, NCL135, NCL139, NCL180, NCL181, NCL195, NCL219, NCL220, NCL228, NCL247, NCL250, NCL259, NCL260, NCL263, NCL265, NCL269, NCL274) by standard broth microdilution method (CLSI) in RPMI 1640. Various concentrations (ranging from high to low) of the selected compounds were prepared in RPMI 1640 medium by double dilution in 96-well microtitre plates. Each well contained an inoculum of approximately 2×10^3 cells/mL. The wells without addition of drugs served as negative (no inoculum) and positive (inoculum only) growth controls. Microtitre plates were incubated at 35° C. for 24-48 hours. […] Antifungal MICs were determined for each isolate in duplicate; if the values obtained were different, the MIC test was repeated a third time.

Another assay deals with Candida albicans. Briefly: CLSI broth microdilution MIC (Example 4). Here is the method: as §1

Converted amounts (≈) assume the structure as drawn. “And” between values parts separate entries of the source, which are not always exact repeats. Identical values can stand only once.

The term MIC denotes the least concentration at which growth counts as inhibited. As to `Cl.N=C(NN=Cc1ccccc1Cl)NN=Cc1ccccc1Cl` [NCL020], the “Screen at 16 μg/mL” value in assay [1] was “Growth”. The “MIC at 24-48 hours” value against Cryptococcus neoformans (Cryptococcus neoformans SA1), with Cryptococcus neoformans (Cryptococcus neoformans SA2), against Candida albicans (Candida albicans ATCC 90028) and in the assay on Candida albicans (Candida albicans SA3) was over 32 µg/mL each time.
On to `Cl.N=C(NN=CC1CCCCC1)NN=CC1CCCCC1` [NCL094], for which the “Screen at 16 μg/mL” value in assay [1] was “Growth”. The “MIC at 24-48 hours” value against Cryptococcus neoformans (Cryptococcus neoformans SA1), against Cryptococcus neoformans (Cryptococcus neoformans SA2), against Candida albicans (Candida albicans ATCC 90028) and against Candida albicans (Candida albicans SA3) was over 32 µg/mL throughout.
Consider `Cl.N=C(NN=Cc1ccc([N+](=O)[O-])cc1)NN=Cc1ccc([N+](=O)[O-])cc1` [NCL110], for which the “Screen at 16 μg/mL” value in assay [1] is reported as “Growth”. Moreover, the “MIC at 24-48 hours” value with Cryptococcus neoformans (Cryptococcus neoformans SA1), against Cryptococcus neoformans (Cryptococcus neoformans SA2), in the assay with Candida albicans (Candida albicans ATCC 90028) and against Candida albicans (Candida albicans SA3) was over 32 µg/mL in each case.
`Cl.N=C(NN=Cc1cc(Cl)cc(Cl)c1)NN=Cc1cc(Cl)cc(Cl)c1` [NCL114]: the “Screen at 16 μg/mL” value in assay [1] is “Growth”. Besides, the “MIC at 24-48 hours” value in the assay on Cryptococcus neoformans (Cryptococcus neoformans SA1), against Cryptococcus neoformans (Cryptococcus neoformans SA2), in the assay with Candida albicans (Candida albicans ATCC 90028) and with Candida albicans (Candida albicans SA3) was over 32 µg/mL in each case.
Turning to `COc1cc(Br)c(C=NNC(=N)NN=Cc2cc(OC)c(OC)cc2Br)cc1OC.Cl` [NCL135], the “Screen at 16 μg/mL” value in assay [1] is on record as “Growth”. Besides, the “MIC at 24-48 hours” value against Cryptococcus neoformans (Cryptococcus neoformans SA1), against Cryptococcus neoformans (Cryptococcus neoformans SA2), with Candida albicans (Candida albicans ATCC 90028) and in the assay on Candida albicans (Candida albicans SA3) was over 32 µg/mL throughout.
Turning to `Cl.N=C(NN=Cc1cnc2ccccc2c1)NN=Cc1cnc2ccccc2c1` [NCL139], the MIC in assay [1] is under 0.5 µg/mL. The “Screen at 16 μg/mL” value in assay [1] is “No growth”. The “MIC at 24-48 hours” value in the assay on Cryptococcus neoformans (Cryptococcus neoformans SA1), against Cryptococcus neoformans (Cryptococcus neoformans SA2), in the assay with Candida albicans (Candida albicans ATCC 90028) and with Candida albicans (Candida albicans SA3) was over 32 µg/mL throughout.
For the compound `OCC(=NNc1cc(NN=C(CO)c2ccc(Cl)cc2)ncn1)c1ccc(Cl)cc1` [NCL180], the “Screen at 16 μg/mL” value in assay [1] is on record as “Growth”. The “MIC at 24-48 hours” value against Cryptococcus neoformans (Cryptococcus neoformans SA1), with Cryptococcus neoformans (Cryptococcus neoformans SA2), with Candida albicans (Candida albicans ATCC 90028) and against Candida albicans (Candida albicans SA3) was over 32 µg/mL in each case.
`Clc1ccc(C=NNc2cc(NN=Cc3ccc(Cl)cc3)ncn2)cc1` [NCL181]: in assay [1], the “Screen at 16 μg/mL” value was “Growth”. Moreover, the “MIC at 24-48 hours” value in the assay on Cryptococcus neoformans (Cryptococcus neoformans SA1), against Cryptococcus neoformans (Cryptococcus neoformans SA2), in the assay on Candida albicans (Candida albicans ATCC 90028) and in the assay on Candida albicans (Candida albicans SA3) was over 32 µg/mL each time.
As for `CC(C)COC(=O)N(N=Cc1ccc(Cl)cc1)C(N)=NN=Cc1ccc(Cl)cc1` [NCL225], the “Screen at 16 μg/mL” value in assay [1] was “Growth”.
As for `NC(=NN=Cc1ccc(Cl)cc1)N(N=Cc1ccc(Cl)cc1)C(=O)NCc1ccccc1` [NCL227], in assay [1], the MIC is over 64 µg/mL and the “Screen at 16 μg/mL” value was “Growth”.
For the compound `CCCCCCNC(=O)N(N=Cc1ccc(Cl)cc1)C(N)=NN=Cc1ccc(Cl)cc1` [NCL228], the MIC in assay [1] is 0.5 µg/mL and 1 µg/mL. The “Screen at 16 μg/mL” value in assay [1] is listed as “No growth”. Further, the “MIC at 24-48 hours” value against Cryptococcus neoformans (Cryptococcus neoformans SA1), with Cryptococcus neoformans (Cryptococcus neoformans SA2), in the assay on Candida albicans (Candida albicans ATCC 90028) and against Candida albicans (Candida albicans SA3) was over 32 µg/mL throughout.
For the compound `NC(=NN=Cc1ccc(Cl)cc1)N(N=Cc1ccc(Cl)cc1)C(=O)NCc1ccco1` [NCL229], in assay [1], the “Screen at 16 μg/mL” value was “Growth”.
Turning to `COc1ccc(C=NNc2cc(NN=Cc3ccc(OC)cc3)nc(N)n2)cc1` [NCL230], in assay [1], the “Screen at 16 μg/mL” value was “Growth”.
Same read-out and setting: with `CC(=NNC(=N)N)c1ccc(C(C)(C)C)cc1` [NCL231] the entry was “Growth”.
Consider `CC(C)(C)c1ccc(C=NNC(=N)N)cc1` [NCL232], for which the “Screen at 16 μg/mL” value in assay [1] is “Growth”.
In the case of `CCCC(=NNC(=N)N)c1ccc(Cl)cc1.Cl` [NCL233], in assay [1], the “Screen at 16 μg/mL” value is “Growth”.
Consider `CCC(=NNC(=N)N)c1ccc(Cl)cc1` [NCL234], for which the “Screen at 16 μg/mL” value in assay [1] is “Growth”.
On the same count and under the same terms, under `N=C(N)NN=Cc1ccc(Cl)cc1F` [NCL235] stands “Growth”; under `CC(=NNC(=N)N)c1ccc(Cl)cc1F` [NCL236], “Growth”; under `N=C(N)NN=C(CC1CCCCC1)c1ccc(Cl)cc1O` [NCL237], “Growth”.
Still for that read-out and setting: with `Nc1nc(NN=Cc2ccc(Cl)nc2)cc(NN=Cc2ccc(Cl)nc2)n1` [NCL238] the entry was “Growth”; with `Nc1nc(NN=Cc2cccnc2)cc(NN=Cc2cccnc2)n1` [NCL239], “Growth”; with `Nc1nc(NN=Cc2ccncc2)cc(NN=Cc2ccncc2)n1` [NCL241], “Growth”.
As to `Nc1nc(NN=Cc2ccc(O)c(O)c2)cc(NN=Cc2ccc(O)c(O)c2)n1` [NCL243], in assay [1], the MIC is 16 µg/mL and 32 µg/mL; the “Screen at 16 μg/mL” value was “No growth”.
With `Nc1nc(NN=Cc2cccc(O)c2O)cc(NN=Cc2cccc(O)c2O)n1.O=Cc1cccc(O)c1O` [NCL244], in assay [1], the MIC is over 64 µg/mL and the “Screen at 16 μg/mL” value was “Growth”.
For `Nc1nc(NN=Cc2cccc3ccccc23)cc(NN=Cc2cccc3ccccc23)n1` [NCL245], the “Screen at 16 μg/mL” value in assay [1] is reported as “Growth”.
Take `Nc1nc(NN=CC=Cc2ccccc2)cc(NN=CC=Cc2ccccc2)n1` [NCL246]: the “Screen at 16 μg/mL” value in assay [1] is recorded as “Growth”.
Take `Nc1nc(N/N=C/c2cc(O)c(O)c(O)c2)cc(N/N=C/c2cc(O)c(O)c(O)c2)n1` [NCL247]: in assay [1], the MIC was 2 µg/mL and 4 µg/mL. In assay [1], the “Screen at 16 μg/mL” value is given as “No growth”. For the same compound, the “MIC at 24-48 hours” value against Cryptococcus neoformans (Cryptococcus neoformans SA1), with Cryptococcus neoformans (Cryptococcus neoformans SA2), against Candida albicans (Candida albicans ATCC 90028) and against Candida albicans (Candida albicans SA3) was over 32 µg/mL throughout.
With `N=C(N)NN=Cc1cccc2ccccc12` [NCL248], the “Screen at 16 μg/mL” value in assay [1] is recorded as “Growth”.
`N=C(N)NN=CC=Cc1ccccc1` [NCL249]: the “Screen at 16 μg/mL” value in assay [1] was “Growth”.
For `Clc1ccc(C=NCCCN=Cc2ccc(Cl)cc2)cc1` [NCL252], the “Screen at 16 μg/mL” value in assay [1] is “Growth”.
On the same count and under the same terms, under `CN(C)c1ccc(/C=N/NC(=N)N)cc1` [NCL253] stands “Growth”.
Turning to `CCCCCC(=NNC(=N)N)c1ccc(Cl)cc1.Cl` [NCL254], in assay [1], the MIC turned out to be 8 µg/mL and the “Screen at 16 μg/mL” value is listed as “No growth”.
As for `Nc1nc(NN=Cc2ccc(-c3ccccc3)cc2)cc(NN=Cc2ccc(-c3ccccc3)cc2)n1` [NCL255], the “Screen at 16 μg/mL” value in assay [1] is listed as “Growth”.
Regarding `Nc1nc(NN=Cc2ccc(O)cc2O)cc(NN=Cc2ccc(O)cc2O)n1` [NCL256], in assay [1], the “Screen at 16 μg/mL” value is “Growth”.
On the same count and under the same terms, with `Clc1ccc(CNCCCCNCc2ccc(Cl)cc2)cc1` [NCL258] the entry was “Growth”; with `Cl.N=C(N)NN=Cc1ccc2ccccc2c1` [NCL261], “Growth”.
Same read-out and setting: with `Nc1nc(NN=CCCc2ccccc2)cc(NN=CCCc2ccccc2)n1` [NCL262] the entry was “Growth”.
`Nc1nc(NN=Cc2ccc3ccccc3c2)cc(NN=Cc2ccc3ccccc3c2)n1` [NCL264]: the “Screen at 16 μg/mL” value in assay [1] is “Growth”.
Consider `N=C(N)NN=C(CCC1CCCC1)c1ccc(Cl)cc1` [NCL266], for which, in assay [1], the MIC worked out at 4 µg/mL (≈ 13.7 µM) and the “Screen at 16 μg/mL” value is given as “No growth”.
For `CC(=NNC(=N)NN=C(C)c1c[nH]c2ccccc12)c1c[nH]c2ccccc12` [NCL268] the same measures were 4 µg/mL (≈ 10.8 µM) and “No growth”.
Taken in the same sequence, the figures for `CCCCCC(=NNC(=N)NN=C(CCCCC)c1ccc(Cl)cc1)c1ccc(Cl)cc1` [NCL271] were 1 µg/mL (≈ 2.11 µM) and “No growth”.
Consider `CCCCCCCC(=NNC(=N)NN=C(CCCCCCC)c1ccc(Cl)cc1)c1ccc(Cl)cc1` [NCL272], for which the “Screen at 16 μg/mL” value in assay [1] is on record as “Growth”.
Still for that read-out and setting: under `CCOCC(=NNC(=N)NN=C(COCC)c1ccc(Cl)cc1)c1ccc(Cl)cc1` [NCL275] stands “Growth”; under `Cl.N=C(NN=Cc1cccc2nsnc12)NN=Cc1cccc2nsnc12` [NCL276], “Growth”.
In the case of `Cl.N=C(NN=Cc1ccc2nsnc2c1)NN=Cc1ccc2nsnc2c1` [NCL277], in assay [1], the “Screen at 16 μg/mL” value is on record as “Growth”.
Regarding `Cl.N=C(N)NN=Cc1cnc2ccccc2n1` [NCL278], in assay [1], the “Screen at 16 μg/mL” value is “Growth”.
Same read-out and setting: under `Cl.N=C(N)NN=Cc1nc2ccccc2s1` [NCL279] stands “Growth”; under `Cl.N=C(N)NN=Cc1ccc2nsnc2c1` [NCL280], “Growth”; under `Cl.N=C(N)N/N=C/c1cccc2nsnc12` [NCL281], “Growth”.
Same read-out and setting: with `Cl.N=C(NN=Cc1ccc2ncccc2c1)NN=Cc1ccc2ncccc2c1` [NCL282] the entry was “No growth”; with `Cc1nc[nH]c1C=NNC(=N)N.Cl` [NCL283], “Growth”.
